Here are results for 1 compound from ChEMBL document CHEMBL1649204, “Evaluation of analogs of reutericyclin as prospective candidates for treatment of staphylococcal skin infections” (Antimicrob Agents Chemother, 2009).

In data set [1] the test system is Staphylococcus aureus. Kind of data set: Antimicrobial activity against methicillin-susceptible Staphylococcus aureus by microdilution method. The class given is functional.
Data set [2] has as its system Staphylococcus aureus. The data set can be described thus: Antimicrobial activity against methicillin-resistant Staphylococcus aureus by microdilution method. Type of data set: functional.
In data set [3] the test system is Staphylococcus aureus. The data set can be described thus: Antimicrobial activity against mupirocin- and methicillin-resistant Staphylococcus aureus by microdilution method. Type of data set: functional.
The subject of a further data set is Streptococcus pyogenes. The data set can be described thus: Antimicrobial activity against Streptococcus pyogenes by microdilution method. Type of data set: functional.
Data set [4] is described as follows: Cytotoxicity against human CCD-32Sk cells after 48 hrs by MTT assay. Type of data set: cell-based. The conditions noted are these: Homo sapiens, CCD-32Sk, 48 h; read-out: IC50.
For data set [5], the system named is Staphylococcus aureus. Kind of data set: Antimicrobial activity against Staphylococcus aureus 8235 by microdilution method. The class given is functional.
Data set [6] in a line: Therapeutic index, ratio of IC50 for human CCD-32Sk cells to MIC for Staphylococcus aureus 8235. The class given is cell-based. Particulars: read-out: TI.
Data set [7] has as its system Staphylococcus aureus. The data set can be described thus: Antimicrobial activity against Staphylococcus aureus isolate 8235 at >200 ug/ml by microdilution method in presence of 50 % human serum. Type of data set: functional, organism-based.
Data set [8] has as its system Staphylococcus aureus. The data set can be described thus: Antimicrobial activity against methicillin-susceptible Staphylococcus aureus ATCC 29213 grown as biofilms by microdilution method. The class given is functional.
The test system of data set [9] is Staphylococcus epidermidis. Kind of data set: Antimicrobial activity against Staphylococcus epidermidis RP62A grown as biofilms by microdilution method. The class given is functional.
For data set [10], the system named is Staphylococcus aureus. The data set can be described thus: Antimicrobial activity against methicillin-resistant Staphylococcus aureus ATCC 33591 by microdilution method. Type of data set: functional.
Data set [11] concerns Staphylococcus aureus. Kind of data set: Antimicrobial activity against methicillin-susceptible Staphylococcus aureus ATCC 29213 by microdilution method. Type of data set: functional.
In data set [12] the test system is Staphylococcus epidermidis. The data set can be described thus: Antimicrobial activity against Staphylococcus epidermidis RP62A by microdilution method. The class given is functional.
Data set [13] has as its system Staphylococcus aureus. The data set can be described thus: Antimicrobial activity against Staphylococcus aureus ATCC 29213 infected BALB/c mouse at 2 % administered topically 4 hrs post infection twice a day for 5 days. The class given is functional, organism-based.

Values after ≈ are worked out from the molar mass of the structure shown. Active and inactive are the calls of the source. The rule behind the calls is not given here. A value given as a limit tells only on which side of the number the result lay.

Regarding `C/C(=C\C(=O)OCCCCCCCCC(=O)O)C[C@@H]1OC[C@H](C[C@@H]2O[C@H]2[C@@H](C)[C@H](C)O)[C@@H](O)[C@H]1O` [MUPIROCIN], the MIC50 in the data set on Staphylococcus aureus [1] came out at 0.8 µg/mL (≈ 1.6 µM); in the data set on Staphylococcus aureus [2], 0.8 µg/mL (≈ 1.6 µM); in the data set on Staphylococcus aureus [3], 0.8 µg/mL (≈ 1.6 µM); in the data set on Streptococcus pyogenes it was 0.4 µg/mL (≈ 0.799 µM). The MIC90 in the data set on Staphylococcus aureus [1] stood at 0.8 µg/mL (≈ 1.6 µM); against Staphylococcus aureus [2], 3.12 µg/mL (≈ 6.23 µM); against Staphylococcus aureus [3] it was 0.8 µg/mL (≈ 1.6 µM); in the data set on Streptococcus pyogenes, 0.4 µg/mL (≈ 0.799 µM). Moreover, the IC50 in data set [4] is above 20000 µg/mL. Besides, the MIC in the data set with Staphylococcus aureus [5] was 12.5 µg/mL (≈ 25 µM); in the data set on Staphylococcus aureus [10] it was 0.06 µg/mL (≈ 0.12 µM); against Staphylococcus aureus [11], 0.1 µg/mL (≈ 0.2 µM); in data set [12], 0.12 µg/mL (≈ 0.24 µM). Further, the selectivity ratio in data set [6] is above 1600. Moreover, the result with Staphylococcus aureus [7] was inactive. The MBEC (with Staphylococcus aureus [8]; in [9]) was above 400 µg/mL each time. Further, the MBIC (in the data set on Staphylococcus aureus [8]; in [9]) was below 0.2 µg/mL throughout. In addition, the result in the data set on Staphylococcus aureus [13] was Active.
